Laboratory results as given in ChEMBL document CHEMBL1201862, “PubChem BioAssay data set” (2004).
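96-well plates; 48 h exposure; 5 concentrations. Endpoints by linear interpolation between flanking doses. Not reached: highest tested concentration assigned. GI50 = concentration required for 50% inhibition of growth.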 The source made the active and inactive calls. Cut-off read from the data, not from the text of the source: active = GI50 up to about 1.1 µM and inactive = higher.

Legend:
Assay in all cases: growth of human tumour cells (NCI), 48 h
[1] = tested on: DLD-1
[2] = tested on: DMS-114
[3] = tested on: DMS-273
[4] = tested on: LXFL 529
[5] = tested on: M19-MEL
[6] = tested on: RXF 631
[7] = tested on: XF498
[8] = tested on: HOP-18
[9] = tested on: SNB-78

| Structure (SMILES) | GI50 [1] | GI50 [2] | GI50 [3] | GI50 [4] | GI50 [5] | GI50 [6] | GI50 [7] | GI50 [8] | GI50 [9] |
| --- | --- | --- | --- | --- | --- | --- | --- | --- | --- |
| O=C1c2ccccc2C(=O)N1C/C=N/NS(=O)(=O)c1ccc(Cl)cc1 | > 100 µM (inactive) | > 100 µM (inactive) | > 100 µM (inactive) | > 100 µM (inactive) | > 100 µM (inactive) | > 100 µM (inactive) | > 100 µM (inactive) |  |  |
| O=C(O)/C(=C\c1ccccc1Cl)S(=O)(=O)c1ccccc1 | > 100 µM (inactive) | > 100 µM (inactive) | > 100 µM (inactive) | > 100 µM (inactive) | > 100 µM (inactive) | > 100 µM (inactive) |  | > 100 µM (inactive) | > 100 µM (inactive) |
| O=C(O)/C=C/c1ccc(O)c(O)c1 [CAFFEIC ACID] | > 100 µM (inactive) | > 100 µM (inactive) | > 100 µM (inactive) | > 100 µM (inactive) | > 100 µM (inactive) | > 100 µM (inactive) |  | > 100 µM (inactive) | > 100 µM (inactive) |
| CCOC(=O)NC1C2CC(=O)OC(O2)C1OC(C)=O (configuration not stated) | 90.6 µM (inactive) |  | > 100 µM (inactive) | > 100 µM (inactive) | > 100 µM (inactive) | > 100 µM (inactive) |  | > 100 µM (inactive) | > 100 µM (inactive) |
| CC(C)(C)OC(=O)N[C@H]1CC2(C=C(Cl)C(=O)C(Cl)=C2)OC1=O | 3.66 µM (inactive) |  | 18.2 µM (inactive) | 11.4 µM (inactive) | 17.1 µM (inactive) | 16.6 µM (inactive) | 19.3 µM (inactive) | 16.5 µM (inactive) | 19.6 µM (inactive) |
| CCCCCCCCCCCCCC(=O)O[C@H]1CC[C@H](NC(=O)[C@H](OC)[C@H](O)[C@@H](O)[C@H](O)/C=C/C(C)C)C(=O)N(C)C1 [BENGAMIDE B] | 0.00705 µM (active) | 0.00284 µM (active) | < 0.0015 µM (active) | 0.0114 µM (active) | 0.00611 µM (active) | < 0.0015 µM (active) | 0.0164 µM (active) | 0.134 µM (active) | 0.173 µM (active) |
| COc1ccc2cc3n(c2c1)CCc1cc(OC)c(OC)cc1-3 | > 100 µM (inactive) | > 100 µM (inactive) | > 100 µM (inactive) | > 100 µM (inactive) | > 100 µM (inactive) | > 100 µM (inactive) | > 100 µM (inactive) | > 100 µM (inactive) | > 100 µM (inactive) |
| O=C(NOC(=O)c1ccc([N+](=O)[O-])cc1)c1ccc(Cl)cc1 | 38.7 µM (inactive) | 44.5 µM (inactive) |  | 17.9 µM (inactive) | > 100 µM (inactive) | > 100 µM (inactive) | 85.9 µM (inactive) | 2.9 µM (inactive) | 16.6 µM (inactive) |
| CCOC(=O)COc1cccc2c1C(=O)CCO2 | > 100 µM (inactive) | > 100 µM (inactive) | > 100 µM (inactive) | > 100 µM (inactive) | > 100 µM (inactive) | > 100 µM (inactive) | > 100 µM (inactive) |  | > 100 µM (inactive) |
| c1ccc2c(OCCSCCCCCCCCCCSCCOc3cccc4ccccc34)cccc2c1 | > 100 µM (inactive) | > 100 µM (inactive) | > 100 µM (inactive) |  | > 100 µM (inactive) |  |  | > 100 µM (inactive) | > 100 µM (inactive) |
| C/C(=C\Cc1cc(O)ccc1O)CCc1c(C)c(O)c(O)c(C=O)c1C [PANICEIN C] | 21.1 µM (inactive) | 18 µM (inactive) | 27.5 µM (inactive) | 9.64 µM (inactive) | 17.7 µM (inactive) |  | 20 µM (inactive) | 18.7 µM (inactive) |  |
| C/C=C/C1(NS(=O)(=O)c2ccc(C)cc2)CCC(C(C)(C)C)CC1 (configuration not stated) | 35.8 µM (inactive) | 27 µM (inactive) | 16 µM (inactive) | 37.5 µM (inactive) | 19.7 µM (inactive) | 24.7 µM (inactive) | 20.2 µM (inactive) | 34.9 µM (inactive) | 25.6 µM (inactive) |
| Nc1ccc2nc(NCc3ccc(F)cc3)cnc2c1 |  | 75.5 µM (inactive) | > 100 µM (inactive) | > 100 µM (inactive) |  |  | > 100 µM (inactive) |  | 75.7 µM (inactive) |
| COc1ccc(CC2NCCc3cc(OC)c(OC)cc32)cc1 (configuration not stated) | > 100 µM (inactive) | 59.6 µM (inactive) | > 100 µM (inactive) | > 100 µM (inactive) | > 100 µM (inactive) | > 100 µM (inactive) | > 100 µM (inactive) | > 100 µM (inactive) | > 100 µM (inactive) |
| CS(=O)(=O)NNS(=O)(=O)c1ccccc1 | > 100 µM (inactive) | > 100 µM (inactive) | > 100 µM (inactive) | > 100 µM (inactive) | > 100 µM (inactive) |  | > 100 µM (inactive) |  |  |
| COc1cccc(C2N3CCCCC3[C@@H]3c4[nH]c5ccccc5c4CCN23)c1OC (some centres not stated) | 16.9 µM (inactive) | 15.5 µM (inactive) | 16 µM (inactive) | 15.2 µM (inactive) | 15.9 µM (inactive) | 16.4 µM (inactive) | 15.2 µM (inactive) | 17 µM (inactive) | 15.7 µM (inactive) |
| Clc1ccc(-c2c(C3=NCCN3)nnn2-c2ccc(Cl)cc2)cc1 | 27.9 µM (inactive) | 16.4 µM (inactive) | 42.2 µM (inactive) | 29.4 µM (inactive) | 16.6 µM (inactive) |  | 15 µM (inactive) | > 100 µM (inactive) | 18.8 µM (inactive) |
| C[C@@H](NC1CCCC[C@H]1O)c1ccccc1 (some centres not stated) | > 100 µM (inactive) |  | > 100 µM (inactive) |  | > 100 µM (inactive) |  | > 100 µM (inactive) | > 100 µM (inactive) | > 100 µM (inactive) |
| CCOC(=O)/C(=C/c1ccc(C(=O)OC)cc1)N(CC)CC |  | 32.3 µM (inactive) |  | 50.6 µM (inactive) | 51.1 µM (inactive) |  |  |  | 24.4 µM (inactive) |
| CCCCNS(=O)(=O)c1ccc(-c2ccc3c(c2)-c2ccc(S(=O)(=O)NCCCC)cc2S3(=O)=O)cc1 | 43.6 µM (inactive) | 7.52 µM (inactive) | 20 µM (inactive) | 13.2 µM (inactive) | 21.5 µM (inactive) |  | 10.3 µM (inactive) | 20.7 µM (inactive) | 12.4 µM (inactive) |
| CC1=C(C(=O)Nc2ccccc2C)C(c2ccccc2O)C(C(=O)Nc2ccccc2C)=C(C)N1 | 16.8 µM (inactive) | 22 µM (inactive) | 17.7 µM (inactive) | 20.1 µM (inactive) | 21 µM (inactive) |  | 22.3 µM (inactive) | 17.9 µM (inactive) | 29.5 µM (inactive) |
| [N-]=[N+]=NCC(O)Cn1cnc2c(NC(=O)c3ccccc3)ncnc21 (configuration not stated) | > 100 µM (inactive) | 67.1 µM (inactive) | 64.4 µM (inactive) | > 100 µM (inactive) | > 100 µM (inactive) |  | > 100 µM (inactive) | > 100 µM (inactive) | > 100 µM (inactive) |
| CC#CC(OCC)(OCC)OCC | > 100 µM (inactive) | 25.8 µM (inactive) | 20.6 µM (inactive) | > 100 µM (inactive) | > 100 µM (inactive) |  | > 100 µM (inactive) | > 100 µM (inactive) | > 100 µM (inactive) |
| Cc1c2nc3ccccc3sc-2cc(=O)c1C | 12.7 µM (inactive) | 10.2 µM (inactive) | 50.6 µM (inactive) | 41 µM (inactive) | 15.8 µM (inactive) |  | 28.4 µM (inactive) | > 100 µM (inactive) | > 24.3 µM (inactive) |
| CC/C(=N/O)c1ccc2[nH]c3c(C)cc([N+](=O)[O-])c(C)c3c2c1 | 16.2 µM (inactive) | > 100 µM (inactive) | 19.4 µM (inactive) |  | 50.2 µM (inactive) |  | 50.2 µM (inactive) | > 100 µM (inactive) | > 100 µM (inactive) |
| O=C(CC(=O)c1cccc([N+](=O)[O-])c1)C(=O)Nc1ccccc1 | > 100 µM (inactive) | > 100 µM (inactive) | > 100 µM (inactive) | > 100 µM (inactive) | > 100 µM (inactive) | > 100 µM (inactive) | > 100 µM (inactive) | > 100 µM (inactive) | > 100 µM (inactive) |
